Test results as given in paper PMC8225008, “Development of Non-Ethoxypropanoic Acid Type Cryptochrome Inhibitors with Circadian Molecular Clock-Enhancing Activity by Bioisosteric Replacement” (Pharmaceuticals, 2021).

Target: T1, CYP1A2 (Homo sapiens, UniProt P05177)
T1 construct: pooled human liver microsomes (HLMs, XTreme 200, XenoTech, Lenexa, KS, USA); tissue XenoTech XTreme 200; host or cells: pooled human liver microsomes
T1 sequence (P05177 1-516): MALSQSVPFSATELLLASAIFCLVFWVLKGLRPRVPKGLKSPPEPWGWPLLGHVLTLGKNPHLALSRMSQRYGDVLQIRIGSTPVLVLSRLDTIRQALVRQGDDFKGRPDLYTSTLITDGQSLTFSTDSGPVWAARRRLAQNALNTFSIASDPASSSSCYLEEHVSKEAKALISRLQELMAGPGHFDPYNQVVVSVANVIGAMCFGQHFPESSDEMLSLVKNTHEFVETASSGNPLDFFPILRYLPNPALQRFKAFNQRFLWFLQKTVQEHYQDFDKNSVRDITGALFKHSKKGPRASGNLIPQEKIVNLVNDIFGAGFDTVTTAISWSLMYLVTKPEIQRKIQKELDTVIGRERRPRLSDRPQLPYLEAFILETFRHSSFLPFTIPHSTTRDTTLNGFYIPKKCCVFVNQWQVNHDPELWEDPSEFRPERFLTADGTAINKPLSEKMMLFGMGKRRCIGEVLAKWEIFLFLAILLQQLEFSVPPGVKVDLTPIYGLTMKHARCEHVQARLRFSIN
Assay: Cytochrome P450 inhibition assay (cocktail method, human liver microsomes), phenacetin O-deethylation
Format: in vitro ADME
Description: The inhibitory effects of KS15 and compound 5d on the metabolism of five cytochrome P450 (P450) probe substrates were evaluated using previous methods with slight modifications. The following P450 probe substrates were used: phenacetin (100 μM) for CYP1A2, tolbutamide (100 μM) for CYP2C9, omeprazole (20 μM) for CYP2C19, dextromethorphan (5 μM) for CYP2D6, and midazolam (5 μM) for CYP3A. Incubation mixtures containing pooled human liver microsomes (HLMs, XTreme 200, XenoTech, Lenexa, KS, USA), P450 probe substrates, and KS15 or compound 5d (final concentrations: 0, 0.5, 2, 5, 20, and 50 μM) were preincubated for 5 min at 37 °C. […] After centrifugation at 18,000× g (5 min, 4 °C), supernatant aliquots were analyzed by liquid chromatography-tandem mass spectrometry (LC-MS/MS). […]
All metabolites and IS were separated on a Kinetex C18 column (100 mm × 2.1 mm, 2.6 μm ID., Phenomenex, Torrance, CA, USA) and analyzed using an LC-MS/MS system (LCMS 8060, Shimadzu, Tokyo, Japan) equipped with an electrospray ionization (ESI) interface. […]
The EC50 values for luciferase reporter assay were calculated based on a logistic four-parametric equation using the mean values of intrinsic activation (SigmaPlot 10.0; Systat Software Inc., San Jose, CA, USA). […] Pharmacokinetic parameters were calculated using non-compartmental analysis (WinNonlin v.8.3; Pharsight, Mountain View, CA, USA). […]

- IC50: > 50 µM
SMILES: COC(=O)COc1cccc(C(C)=NOCc2ccc([N+](=O)[O-])cc2)c1 [Compound 5d, Methyl 2-(3-(1-(((4-nitrobenzyl)oxy)imino)ethyl)phenoxy)acetate]
